The record followed here is PubChem BioAssay (NCI).

Each structure is given as a SMILES string. Several values for one entry are separate records, joined by “and”; a condition that tells them apart may be missing. Identical values can stand only once.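 Results reflect a 48-hour exposure of cells in 96-well plates to compound at five concentrations. Here, GI50 denotes the concentration required for 50% inhibition of growth. TGI: concentration producing complete growth inhibition.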

Some test systems named below: HL-60(TB) leukemia; KM12 colon; A549 NSCLC; ACHN renal; SR leukemia; BT-549 breast; NCI-H522 lung; MDA-MB-231 breast; RXF 393 renal; SF-295 CNS.
What all share (assay): NCI-60 cell line screen, 48 h

Take `NNC(=S)N/N=C/c1ccccn1`: the GI50 in the test with HL-60(TB) leukemia was 1740 nM; in the test with KM12 colon it was 2620 nM; in the test on A549 NSCLC, 3.14 µM; with ACHN renal it was 1.71 µM; in the test with SR leukemia it was 884 nM; with BT-549 breast, 4.29 µM. Further, the GI50 in the test on NCI-H522 lung is 258 nM; with MDA-MB-231 breast, 0.699 µM; in the test with RXF 393 renal it was 2500 nM; in the test with SF-295 CNS it was 3.06 µM. For the same compound, the TGI is 5.92 µM with HL-60(TB) leukemia; above 100 µM in the test with KM12 colon; above 100 µM in the test with A549 NSCLC; above 100 µM in the test with ACHN renal; 90.1 µM with SR leukemia; above 100 µM in the test on BT-549 breast. Moreover, the TGI is 0.859 µM in the test on NCI-H522 lung, above 100 µM in the test with MDA-MB-231 breast, above 100 µM with RXF 393 renal and above 100 µM with SF-295 CNS.

For the compound `Nc1ncnc2occ(-c3ccc(NC(=O)Nc4cc(C(F)(F)F)ccc4F)cc3)c12`, the GI50 with HL-60(TB) leukemia was 6880 nM and 6160 nM; with KM12 colon, 133 nM and 115 nM; in the test with A549 NSCLC, 6.44 µM and 3.16 µM; in the test on ACHN renal it was 4.17 µM and 2.9 µM; with SR leukemia, 2150 nM and 1050 nM; with BT-549 breast, 6.83 µM and 3.42 µM. Also, the GI50 is 5480 nM and 1910 nM in the test with NCI-H522 lung; 7.93 µM and 3.8 µM in the test with MDA-MB-231 breast; 2950 nM and 1110 nM in the test with RXF 393 renal; 4.97 µM and 3.23 µM with SF-295 CNS. Moreover, the TGI in the test on HL-60(TB) leukemia is 16 µM and 14.7 µM; in the test on KM12 colon it was 4.81 µM and 3.08 µM; in the test on A549 NSCLC, 18.8 µM and 11.5 µM; in the test with ACHN renal, 18.8 µM and 16.4 µM; in the test on SR leukemia, 11.7 µM and > 25 µM; in the test on BT-549 breast, 17.4 µM and 9.93 µM. Further, the TGI in the test on NCI-H522 lung is 11.2 µM and 5.81 µM; in the test with MDA-MB-231 breast, 23.1 µM and 12.4 µM; with RXF 393 renal it was 7.06 µM and 3.92 µM; in the test on SF-295 CNS, 16.3 µM and 9.43 µM.

On to `Oc1c(CCl)cc(Cl)cc1Cc1cc(Cl)cc(Cc2cc(Cl)cc(CCl)c2O)c1O`, for which the GI50 with HL-60(TB) leukemia is 2480 nM; with KM12 colon it was 3430 nM; in the test on A549 NSCLC it was 4.67 µM; in the test on ACHN renal, 3.09 µM; in the test with SR leukemia, 2850 nM; with BT-549 breast, 2.71 µM. Further, the GI50 in the test with NCI-H522 lung is 2730 nM; with MDA-MB-231 breast, 2.64 µM; in the test on RXF 393 renal, 2590 nM; in the test on SF-295 CNS, 3.66 µM. The TGI in the test on HL-60(TB) leukemia was found to be 8.13 µM; in the test on KM12 colon it was 13.5 µM; with A549 NSCLC it was 29.3 µM; in the test on ACHN renal it was 12.8 µM; with SR leukemia it was 41 µM; in the test on BT-549 breast, 11.5 µM. Besides, the TGI in the test with NCI-H522 lung came to 10.2 µM; in the test on MDA-MB-231 breast, 7.63 µM; in the test with RXF 393 renal, 9.43 µM; with SF-295 CNS, 34.7 µM.

`COc1ccc(/C=C/C(=O)c2ccc(B(O)O)cc2)cc1O`: the GI50 in the test on HL-60(TB) leukemia is 2520 nM; in the test with KM12 colon, 3960 nM; in the test on A549 NSCLC it was 14.5 µM; in the test with ACHN renal, 22.1 µM; in the test with SR leukemia it was 3200 nM; in the test with BT-549 breast it was 6.8 µM. In addition, the GI50 is 17800 nM with NCI-H522 lung, 20.2 µM with MDA-MB-231 breast, 11500 nM with RXF 393 renal and 15.1 µM with SF-295 CNS. The TGI was 44.2 µM in the test with HL-60(TB) leukemia; 15 µM in the test on KM12 colon; above 76.7 µM in the test on A549 NSCLC; above 84.7 µM in the test with ACHN renal; above 100 µM with SR leukemia; 20.1 µM with BT-549 breast. Also, the TGI is 45.1 µM with NCI-H522 lung, above 85 µM with MDA-MB-231 breast, 39.6 µM in the test with RXF 393 renal and 56.5 µM with SF-295 CNS.

On to `CCOC(=O)Nc1nc(-c2ccccc2)c(C)s1`, for which the TGI in the test with HL-60(TB) leukemia was 90.5 µM; with KM12 colon it was above 100 µM; in the test with A549 NSCLC it was above 100 µM; in the test with ACHN renal, above 100 µM; with SR leukemia it was above 100 µM; in the test with BT-549 breast it was above 100 µM. Moreover, the TGI in the test on NCI-H522 lung, with MDA-MB-231 breast, with RXF 393 renal and with SF-295 CNS was above 100 µM in each case.

With `CC(=O)N[C@@H](Cc1ccc(OP(=O)(O)O)cc1)C(=O)N[C@H]1CCC(=O)N2CCC[C@@H](C(=O)NCc3cccc4ccccc34)N2C1=O`, the GI50 with HL-60(TB) leukemia was above 25000 nM; in the test on KM12 colon, above 25000 nM; with A549 NSCLC it was above 25 µM; in the test with ACHN renal it was above 25 µM; in the test on SR leukemia, above 25000 nM; in the test with BT-549 breast, above 25 µM. The GI50 in the test with NCI-H522 lung is above 25000 nM; in the test on MDA-MB-231 breast it was above 25 µM; in the test on RXF 393 renal, above 25000 nM; in the test with SF-295 CNS, above 25 µM. Besides, the TGI in the test with HL-60(TB) leukemia, in the test on KM12 colon, in the test with A549 NSCLC, in the test on ACHN renal, in the test on SR leukemia and with BT-549 breast was above 25 µM throughout. Moreover, the TGI in the test on NCI-H522 lung, in the test on MDA-MB-231 breast, with RXF 393 renal and with SF-295 CNS was above 25 µM in each case.
